Test results reported in US3941790A, “Bis diketopiperazines” (National Research Development Corporation, priority 1967, dated 1976).
≈ marks a conversion by molar mass, not a printed value.

Tests used:
[1] = survival and weight gain of treated S180 tumor-bearing mice; assay type: in vivo; settings: fed at 30 mg./Kg. on 5 out of 8 days
[2] = system: leukemia L1210; experiment: leukemia L1210 implanted mice, survival time; assay type: in vivo; settings: for Treated/Control value of survival time, L1210: similar to (ii)
Protocol: Mice implanted with leukemia L1210 are treated as described above with 30 mg. of active substance per kilo for a continuing period until all the animals succumb.

[3] = system: Sarcoma 180 (S180); experiment: implanted tumor Sarcoma 180, mean tumor weight; assay type: in vivo, mice
Protocol: (§1) ii. Mice having implanted tumors Sarcoma 180 and Adenocarcinoma 755, and rats having the implanted tumor Walker 256, are treated with 1,2-bis(3,5-dioxopiperazin-1-yl) ethane. The compound is administered by intraperitoneal injection of a suspension of the substance in isotonic saline containing 1/2% (w/v) carboxymethyl cellulose. The mice are dosed with 30 mg. of active substance per kilo daily for 5 out of 8 days, and their tumors are exercised and weighed. The rats are given one dose only of 400 mg. per kilo and maintained without further treatment for 8 days when their tumors are also removed and weighed. Compared with control animals typical Treated/Control values of mean tumor weight for the S180 and Ca 755 tumors are in the range of 5-10%, and for the Walker tumors of the order of 20%.
iii. In tests with tumor S180 similar to those described under (ii) typical Treated/Control values of mean tumor weight for dl-1,2-bis(3,5-dioxopiperazin-1-yl) butane and meso-2,3-bis(3,5-dioxopiperazin-1-yl) butane are 84% at 30 mg./Kg. and 22% at 0.25 mg./Kg. respectively.

[4] = system: leukemia L1210; experiment: inter-cerebrally implanted leukemia L1210; assay type: in vivo
[5] = system: leukemia L1210; experiment: leukemia L1210 ascites cells injected intraperitoneally, survival and non-takes (Table II); assay type: in vivo, mice; settings: daily i.p. 40 mg./Kg.; for Non-takes: groups of 10 mice, 10% DMSO control 1/10; for Mean survival days: 10% DMSO control 10.1; for Survival days: individual mice
Protocol: v. A suspension of leukaemic cells from DBA2 mice heavily infected with leukemia L1210 is obtained by removing ascites from the peritoneal cavity. The ascitic fluid is diluted in saline and injected intraperitoneally at a level of 10^6 cell into groups of BDFi females.
Stock solutions of each of the dl, d and l isomers of 1,2-bis(3,5-dioxopiperaxin-1-yl)propane in dimethylsulphoxide (DMSO) are prepared and kept frozen. The solutions are thawed each morning and an aliquot diluted 10-fold with saline. Daily intraperitoneal injections of the three diluted solutions into groups of 10 mice are started on the day after innoculation of the leukaemic cells at a daily dosage level of 40 mg./Kg. (equivalent to 0.5 to 1.0 ml of solution per injection). A control group of mice is injected daily with a similar volume of 10% DMSO in saline.
In general, the deaths of mice in any group occur within a few days of each other. If one or more members of a group survive 5 days longer than any other of their companions, injections are stopped and if these mice survive a further 5 days they are classed as failures of transplantation. This is merely an objective criterion of a situation which is visually obvious; the "non-Takes" typically looking sleek and healthy and having no tumor at the inoculation site nor having their bellies swollen with ascitic fluid.

[6] = stability of aqueous salt solutions; assay type: physicochemical; settings: acid solution plus disodium hydrogen phosphate, pH 5.7; injection within 1 hour of preparation recommended
Protocol: When the compounds are to be formulated as salts, preferred formulations are prepared with methane sulphonic acid, isethionic acid, tartaric acid and other solubilizing acids. Salts thus formed are frequently difficult to isolate in view of the weak basicity of some of the parent compounds but their aqueous solutions, after adjustment to physiologically acceptable pH with buffers, are stable for extended periods of time. Solutions of similar strength, i.e., 0.5% (w/v), are also obtainable with hydrochloric acid.
iv. The product of Example 2 (0.548 g.) is added to 5 ml. of a 0.4N solution of (1) hydrochloric acid, (2) isethionic acid, (3) methane sulphonic acid, or (4) tartaric acid, and the mixture is made up to 100 ml. by the addition of water. The solution so obtained is added to an aqueous solution of disodium hydrogen phosphate (0.2M, 10 ml.) to provide a stable solution having a pH of 5.7. Injection of the solution within 1 hour of preparation is recommended.

[7] = system: lymphosarcomas, fibrosarcomas, carcinomas, lymphoblastic leukemias and Hodgkin's disease; experiment: trials in human patients with various forms of cancer; assay type: in vivo; settings: some previously treated unsuccessfully with other drugs or radiotherapy
[8] = system: secondary mouse fibroblast cultures; experiment: inhibition of 3H-thymidine incorporation (rate of DNA synthesis) in mammalian cell cultures; assay type: cell-based; settings: 22 hours incubation; for inhibition at 0.3 µg/mL: 0.3 μg./ml.; for inhibition at 1 µg/mL: 1 μg./ml.; for inhibition at 3 µg/mL: 3 μg./ml.; for inhibition at 200 µg/mL: 200 μg./ml.
Protocol: The overall effects of various compounds on the rate of synthesis of DNA is mammalian cell cultures are determined with the method of Birnie and Simons (Experimental Cell Research, 1967, 46, 355) by measuring the changes in the amount of ^3 H-thymidine incorporated in 1 hour by secondary mouse fibroblast cultures which have been incubated with a particular compound for 22 hours.
Typical results illustrating the degree of inhibition of ^3 H-thymidine incorporation for the treated fibroblasts as compared with untreated fibroblasts are given in Table I. The results obtained can be regarded as a measure of cytotoxicity and correlate well with results obtained with implanted tumors in mice.

[9] = physchem; settings: water
Excerpt: Although the invention is restricted to one stereoisomeric form as far as certain compounds are concerned, others can exist in different stereoisomeric forms, thus the cyclo-butane analogue (I,R1 R2 = C2 H4) can exist in a trans form and also a cis form.

[10] = system: tumours and other forms of cancer; experiment: anti-cancer / biological activity, general statement; settings: for biological activity of d and l forms compared with racemic dl mixture: each substantially free from the other and from the dl form
[11] = system: Adenocarcinoma 755 (Ca 755); experiment: implanted tumor Adenocarcinoma 755, mean tumor weight; assay type: in vivo; settings: mice, i.p., 30 mg. per kilo daily for 5 out of 8 days
Protocol: as §1

[12] = system: Walker 256; experiment: implanted tumor Walker 256, mean tumor weight; assay type: in vivo; settings: rats, i.p., one dose of 400 mg. per kilo, 8 days
Protocol: as §1

[13] = system: metastases; experiment: inhibition of metastases; settings: in vivo

CC(CN1CC(=O)NC(=O)C1)N1CC(=O)NC(=O)C1 (racemic) [dl-1,2-bis(3,5-Dioxopiperazin-1-yl)propane]
survival of animals [1]: all the animals surviving
weight gain ([1]; controls 29%): 12%
Treated/Control value for survival time, L1210 ([2]; intraperitoneal, 30 mg./Kg. daily until death): 257%
Treated/Control value for survival time, L1210 ([2]; orally, 75 mg./Kg.): 157%
Treated/Control value for survival time, L1210 ([2]; subcutaneous, 30 mg./Kg. daily until death): 223%
Treated/Control value for mean tumor weight, S180 ([3]; mice, fed at 30 mg./Kg. on 5 out of 8 days): 7%
effectiveness against inter-cerebrally implanted leukemia L1210 ([4]; in vivo): effective
ability to cross the blood-brain barrier ([4]; indicated by effect on inter-cerebrally implanted L1210): indicative of the ability of the compound to cross the blood-brain barrier
% Increase of survival time over controls [5]: 86%
Non-takes [5]: 0/10
Mean survival days [5]: 18.8 days
Survival days ([5]; listed as dl-): 25 days
stability of solution [6]: stable
regression and palliation of cancers in patients [7]: significant regression and palliation of the cancers
inhibition at 0.3 µg/mL [8]: 15%
inhibition at 1 µg/mL [8]: 48%
inhibition at 5 µg/mL ([8]; 5 μg./ml.): 63%
solubility [9]: ~1000 µg/mL (≈ 3.73 mM)

C[C@H]([C@@H](C)N1CC(=O)NC(=O)C1)N1CC(=O)NC(=O)C1 (relative stereo) [dl-2,3-bis(3,5-dioxopiperazin-1-yl)butane, reference compound]
Treated/Control value of survival time, L1210 ([2]; 30 mg./Kg.): 80%
Treated/Control value of mean tumor weight, S180 ([3]; 30 mg./Kg., similar to (ii)): 84%
anti-cancer activity, in words [10]: essentially inactive
inhibition at 3 µg/mL [8]: 3%
inhibition at 13 µg/mL ([8]; 13 μg./ml.): 26%

O=C1CN([C@@H]2CC[C@H]2N2CC(=O)NC(=O)C2)CC(=O)N1 (relative stereo) [trans-1,2-bis(3,5-Dioxopiperazin-1-yl)cyclobutane]
inhibition at 3 µg/mL [8]: 22%
inhibition at 67 µg/mL ([8]; 67 μg./ml.): 60%

O=C1CN(CCN2CC(=O)NC(=O)C2)CC(=O)N1 [1,2-bis(3,5-dioxopiperazin-1-yl)ethane, 1,2-bis(3,5-Dioxopiperazin-1-yl)ethane]
Treated/Control value of mean tumor weight, S180 ([3]; mice, i.p., 30 mg. per kilo daily for 5 out of 8 days): 5-10%
Treated/Control value of mean tumor weight, Ca 755 [11]: 5-10%
Treated/Control value of mean tumor weight, Walker [12]: ~20%
inhibition at 0.3 µg/mL [8]: 21%
inhibition at 8 µg/mL ([8]; 8 μg./ml.): 69%

CC(CN1CC(=O)NC(=O)C1)N1CC(=O)NC(=O)C1 (centres unmarked) [1,2-bis(3,5-dioxopiperazin-1-yl)propane]
inhibition of metastases [13]: marked degree of inhibition of metastases

C[C@@H](CN1CC(=O)NC(=O)C1)N1CC(=O)NC(=O)C1 [d-1,2-bis(3,5-Dioxopiperazin-1-yl)propane]
% Increase of survival time over controls [5]: 93%
Non-takes [5]: 0/10
Mean survival days [5]: 19.5 days
Survival days ([5]; listed as d-): 26 days
biological activity of d and l forms compared with racemic dl mixture [10]: no substantial difference in biological activity
inhibition at 1 µg/mL [8]: 44%
inhibition at 200 µg/mL [8]: 74%

O=C(O)CN(CCN(CC(=O)O)CC(=O)O)CC(=O)O [ethylene diamine tetra-acetic acid, reference compound]
anti-cancer activity, in words [10]: lack of activity

C[C@H](CN1CC(=O)NC(=O)C1)N1CC(=O)NC(=O)C1 [l-1,2-bis(3,5-Dioxopiperazin-1-yl)propane]
% Increase of survival time over controls [5]: 99%
Non-takes [5]: 0/10
Mean survival days [5]: 20.1 days
Survival days ([5]; listed as l-): 26 days
biological activity of d and l forms compared with racemic dl mixture [10]: no substantial difference in biological activity
inhibition at 1 µg/mL [8]: 52%
inhibition at 200 µg/mL [8]: 72%
solubility [9]: ~11000 µg/mL (≈ 41 mM)

C[C@H]([C@H](C)N1CC(=O)NC(=O)C1)N1CC(=O)NC(=O)C1 [meso-2,3-bis(3,5-Dioxopiperazin-1-yl)butane]
Treated/Control value of survival time, L1210 ([2]; 0.25 mg./Kg.): 165%
Treated/Control value of mean tumor weight, S180 ([3]; 0.25 mg./Kg., similar to (ii)): 22%
anti-cancer activity, in words [10]: significant activity
inhibition at 0.002 µg/mL ([8]; 0.002 μg./ml.): 19%
inhibition at 0.01 µg/mL ([8]; 0.01 μg./ml.): 72%
inhibition at 1 µg/mL [8]: 78%
